The values below come from US20040029843A1, “Rapidly disintegrating formulations for treating or preventing mucositis” (OraPharma, Inc., priority 2002, published 2004).

The assay deals with mucositis induced by acute radiation exposure of the cheek pouch. Description: Hamster cheek pouch model of radiation-induced oral mucositis, clinical scoring 0-5. Format: in vivo, Hamsters. Particulars: 0.1 ml of 0.1 mg/ml aqueous solution topically three times a day for 22 days; for reduction in the number of animal days with scores of 3 or more relative to the control group: 35 Gy on day 0; for mucositis scores versus placebo control group: 35 Gy on day 0, visual score 0-5. As to the method:
Hamsters were randomly assigned to treatment groups with eight (8) animals per group. Each group was treated either with a drug solution or a control, water.
Animals were dosed three times a day for 22 days. The first dose was applied on day -1. Either a solution of the drug or water alone was applied in a volume of 0.1 ml three times per day.
Mucositis was induced by acute radiation exposure of the check pouch. A single dose of radiation (35 Gy/dose) was administered to all animals on Day 0. Prior to irradiation, animals were anesthetized with an intraperiotoneal injection of sodium pentobarbital (80 mg/kg) and the left buccal pouch was everted, fixed and isolated using a lead shield.
Beginning on day 6 and continuing every other day up to day 28, the cheek pouch was photographed. On days that photographs were taken, prior to the first dosing of the day, the animals were anesthetized using an inhalation anesthetic and the left cheek pouch of each animal was rinsed vigorously with sterile water to remove residual food debris or foreign contamination and blotted dry with a gauze sponge. The appearance of the cheek pouch was scored visually by comparison to a validated photographic scale, ranging from 0 for normal to 5 for severe ulceration (clinical scoring). In descriptive terms, this scale is defined as follows: […]
0 Pouch completely healthy. No erythema or vasodilatation
1 Light to […] erythema and vasodilatation. No erosion of mucosa
2 Severe erythema and vasodilatation. Erosion of superficial aspects of mucosa leaving denuded areas. Decreased stippling of mucosa
3 Formation of off-white ulcers in one or more places. Ulcers may have a yellow/gray color due to pseudomembrane formation. Cumulative size of ulcers up to ¼ of the pouch surface. Severe erythema and vasodilatation
4 Cumulative size of ulcers ¼ to ½ of the pouch surface. Loss of pliability. Severe erythema and vasodilatation
5 Virtually all of pouch is ulcerated. Loss of pliability (pouch can only partially be extracted from mouth).
A score of 1-2 represents mild stage of the disease, whereas a score of 3-5 indicates moderate to severe mucositis.

Where a name gives a salt, the structure may show the parent alone.

As for `CN(C)[C@@H]1C(O)=C(C(N)=O)C(=O)[C@@]2(O)C(O)=C3C(=O)c4c(O)cccc4[C@@](C)(O)[C@H]3C[C@@H]12` [tetracycline hydrochloride], the “reduction in the number of animal days with scores of 3 or more relative to the control group” value is “more than 75%” and the “mucositis scores versus placebo control group” value is reported as “Significantly lower scores”.

Turning to meclocycline sulfosalicylate, the “reduction in the number of animal days with scores of 3 or more relative to the control group” value was “more than 75%” and the “mucositis scores versus placebo control group” value was “Significantly lower scores”.
